Assay results as given in patent publication US20050090529A1, “3,5 Disubstituted indazole compounds with nitrogen-bearing 5-membered heterocycles, pharmaceutical compositions, and methods for mediating or inhibiting cell proliferation” (PFIZER INC, priority 2003, published 2005).
pKi: −log10 of the molar value. Converted amounts (≈) assume the structure as drawn.

Key:
CDK2/Cyclin A = target: T1, CDK2/Cyclin A (Homo sapiens, UniProt P24941); assay: Inhibition of CDK2/Cyclin A retinoblastoma kinase activity (apparent Ki); type: biochemical; conditions: read-out: CDK2 Ki
T1 construct: made in house; host or cells: CDK2: insect cells (baculovirus); cyclin A: E. coli
Procedure, shortened: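 Cyclin A complex (proteolyzed cyclin) purified by gel filtration; enzyme-initiated reactions ran 20 min at 30 °C, transferring radiolabelled phosphate from [32P]/[33P]ATP onto a protein substrate, stopped with EDTA and quantified by phosphorimager.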

[1] = Measurement of kinetic solubility; conditions: 100 mM sodium phosphate buffer, pH 6.5, aqueous buffer, kinetic from dmso stock
Description: Kinetic solubility was determined with a […] stock solution from the compound(s) of interest. […] Samples and standards were then centrifuged and an aliquot was removed for HPLC analysis. Samples and standards were analyzed by HPLC and a final concentration for the sample was determined based on a one-point calibration curve from the corresponding standard. Results were reported as μg's/mL.

Row | Compound | pKi (CDK2/Cyclin A) | solubility [1]
1 | CCNCc1cncc(-c2ccc3[nH]nc(-c4ncc(C(=O)N5CCN(Cc6ccccn6)CC5)[nH]4)c3c2)c1C [Example 83, N-({4-methyl-5-[3-(5-{[4-(pyridin-2-ylmethyl)piperazin-1-yl]carbonyl}-1H-imidazol-2-yl)-1H-indazol-5-yl]pyridin-3-yl}methyl)ethanamine] | > 7.30 | > 120 µg/mL
2 | CCNCc1cncc(-c2ccc3[nH]nc(-c4ncc(C(=O)N5CCC(Cc6ncccn6)CC5)[nH]4)c3c2)c1C [Example 85, N-({4-methyl-5-[3-(5-{[4-(pyrimidin-2-ylmethyl)piperidin-1-yl]carbonyl}-1H-imidazol-2-yl)-1H-indazol-5-yl]pyridin-3-yl}methyl)ethanamine] | > 7.30 | > 120 µg/mL
3 | c1c[nH]c(-c2n[nH]c3ccc(-c4cncc5[nH]ccc45)cc23)n1 [Example 94, 3-(1H-Imidazol-2-yl)-5-(1H-pyrrolo[2,3-c]pyridin-4-yl)-1H-indazole] | > 7.30 | 20 to 120 µg/mL (≈ 66.6 to 400 µM)
4 | c1ncc(-c2n[nH]c3ccc(-c4cncc5[nH]ccc45)cc23)[nH]1 [Example 95, 3-(3H-Imidazol-4-yl)-5-(1H-pyrrolo[2,3-c]pyridin-4-yl)-1H-indazole] | > 7.30 | 20 to 120 µg/mL (≈ 66.6 to 400 µM)

Other lines, results leading:

Row | pKi (CDK2/Cyclin A) | solubility [1] | Compound
5 | 6.70 to 7.30 | > 120 µg/mL | CCNCc1cncc(-c2ccc3[nH]nc(-c4nc(C(=O)O)c[nH]4)c3c2)c1C [Example 86, 2-(5-{5-[(ethylamino)methyl]-4-methylpyridin-3-yl}-1H-indazol-3-yl)-1H-imidazole-5-carboxylic acid]
6 | 6.70 to 7.30 | > 120 µg/mL | CCNCc1cncc(-c2ccc3[nH]nc(-c4cnco4)c3c2)c1C [Example 87, N-({4-methyl-5-[3-(1,3-oxazol-5-yl)-1H-indazol-5-yl]pyridin-3-yl}methyl)ethanamine]
7 | > 7.30 | > 120 µg/mL | CCNCc1cncc(-c2ccc3[nH]nc(-c4cnc[nH]4)c3c2)c1C [Example 90, N-({5-[3-(1H-imidazol-5-yl)-1H-indazol-5-yl]-4-methylpyridin-3-yl}methyl)ethanamine]
8 | 6.70 to 7.30 | > 120 µg/mL | CCNCc1cncc(-c2ccc3[nH]nc(-c4cnc(-c5ccncc5)[nH]4)c3c2)c1C [Example 96, Ethyl-{4-methyl-5-[3-(2-pyridin-4-yl-3H-imidazol-4-yl)-1H-indazol-5-yl]-pyridin-3-ylmethyl}-amine]
9 | 6.70 to 7.30 | > 120 µg/mL | CCNCc1cncc(-c2ccc3[nH]nc(C(N)=O)c3c2)c1C [Example 97, 5-(5-Ethylaminomethyl-4-methyl-pyridin-3-yl)-1H-indazole-3-carboxylic acid amide]
